Laboratory results taken from PubChem BioAssay AID256 (DTP/NCI, 2004).
Where “and” joins values, the source holds several entries; their conditions need not be identical. Equal entries are not always repeated. Inconclusive results and toxic doses are left out.

System: CD2F1 mice, L1210 leukemia ip, survival T/C
Test: NCI In Vivo Anticancer Drug Screen. Data for tumor model L1210 Leukemia (intraperitoneal) in CD2F1 (CDF1) mice
Settings: higher = longer survival
In short: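 In this screen, transplantable tumors were grown in mice given either the compound or its vehicle. Results were expressed as the treated measurement relative to the control measurement.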

[1] = endpoint: mean survival time, dose: 25.0 mg/kg/injection, schedule: Q01DX009 (ip), vehicle: saline with Tween-80
[2] = endpoint: mean survival time, dose: 100.0 mg/kg/injection, schedule: Q04DX003 (ip), vehicle: saline with Tween-80

`O=C(O)C(O)C(O)C1[O][Sb][O]C1C(=O)O` (centres undefined) was tested, and the T/C (endpoint: median survival time, dose: 6.25 mg/kg/injection, schedule: Q01DX009 (ip), vehicle: saline) was 93 % of control, the T/C (endpoint: median survival time, dose: 12.5 mg/kg/injection, schedule: Q01DX009 (ip), vehicle: saline) was 102 % of control and the T/C (endpoint: median survival time, dose: 25.0 mg/kg/injection, schedule: Q01DX009 (ip), vehicle: saline) was 95 % of control. For the same compound, the T/C (endpoint: median survival time, dose: 50.0 mg/kg/injection, schedule: Q01DX009 (ip), vehicle: saline) was 98 % of control.

With `O=C/C=C/C=O` the T/C (endpoint: mean survival time, dose: 3.13 mg/kg/injection, schedule: Q01DX001 (ip), vehicle: suspension in saline) was 98 % of control, the T/C (endpoint: mean survival time, dose: 6.25 mg/kg/injection, schedule: Q01DX001 (ip), vehicle: saline with Tween-80) was 106 % of control and the T/C (endpoint: mean survival time, dose: 6.25 mg/kg/injection, schedule: Q01DX001 (ip), vehicle: suspension in saline) was 104 % of control. For the same compound, the T/C (endpoint: mean survival time, dose: 12.5 mg/kg/injection, schedule: Q01DX001 (ip), vehicle: saline with Tween-80) was 122 % of control, the T/C (endpoint: mean survival time, dose: 12.5 mg/kg/injection, schedule: Q01DX001 (ip), vehicle: suspension in saline) was 101 % of control and the T/C (endpoint: mean survival time, dose: 25.0 mg/kg/injection, schedule: Q01DX001 (ip), vehicle: suspension in saline) was 101 % of control.

`CCCCCCCCNC(C)=O` was tested, and the T/C (endpoint: mean survival time, dose: 6.25 mg/kg/injection, schedule: Q01DX009 (ip), vehicle: saline with Tween-80) was 93 % of control, the T/C (endpoint: mean survival time, dose: 12.5 mg/kg/injection, schedule: Q01DX009 (ip), vehicle: saline with Tween-80) was 90 % of control and the T/C [1] was 94 % of control.

For `COc1cc(Cl)ccc1NC(=O)Nc1ccccc1C`, the T/C (endpoint: mean survival time, dose: 25.0 mg/kg/injection, schedule: Q04DX002 (ip), vehicle: saline with Tween-80) was 90 % of control, the T/C (endpoint: mean survival time, dose: 50.0 mg/kg/injection, schedule: Q04DX002 (ip), vehicle: saline with Tween-80) was 94 % of control and the T/C (endpoint: mean survival time, dose: 100.0 mg/kg/injection, schedule: Q04DX002 (ip), vehicle: saline with Tween-80) was 94 % of control. The T/C (endpoint: mean survival time, dose: 200.0 mg/kg/injection, schedule: Q04DX002 (ip), vehicle: saline with Tween-80) was 90 % of control and the T/C (endpoint: mean survival time, dose: 400.0 mg/kg/injection, schedule: Q04DX002 (ip), vehicle: saline with Tween-80) was 90 % of control.

For `C[Si](C)(C)NP(=O)(Oc1ccc([N+](=O)[O-])cc1)Oc1ccc([N+](=O)[O-])cc1`, the T/C (endpoint: mean survival time, dose: 15.6 mg/kg/injection, schedule: Q01DX001 (ip), vehicle: other) was 110 % of control, the T/C (endpoint: mean survival time, dose: 31.3 mg/kg/injection, schedule: Q01DX001 (ip), vehicle: other) was 97 % of control and the T/C (endpoint: mean survival time, dose: 62.5 mg/kg/injection, schedule: Q01DX001 (ip), vehicle: other) was 102 % of control and 108 % of control. The T/C (endpoint: mean survival time, dose: 125.0 mg/kg/injection, schedule: Q01DX001 (ip), vehicle: other) was 87 % of control and 94 % of control.

For `O=[N+]([O-])c1ccc(Sc2ccncn2)c([N+](=O)[O-])c1`, the T/C (endpoint: median survival time, dose: 6.25 mg/kg/injection, schedule: Q01DX009 (ip), vehicle: saline with Tween-80) was 101 % of control, the T/C (endpoint: median survival time, dose: 12.5 mg/kg/injection, schedule: Q01DX009 (ip), vehicle: saline with Tween-80) was 102 % of control and the T/C (endpoint: median survival time, dose: 25.0 mg/kg/injection, schedule: Q01DX009 (ip), vehicle: saline with Tween-80) was 103 % of control. For the same compound, the T/C (endpoint: median survival time, dose: 50.0 mg/kg/injection, schedule: Q01DX009 (ip), vehicle: saline with Tween-80) was 105 % of control and the T/C (endpoint: median survival time, dose: 100.0 mg/kg/injection, schedule: Q01DX009 (ip), vehicle: saline with Tween-80) was 113 % of control.

For `CC1=NC(C#N)=C(C#N)N=C(C)C1`, the T/C (endpoint: mean survival time, dose: 10.0 mg/kg/injection, schedule: Q04DX003 (ip), vehicle: Klucel (hydroxypropylcellulose) (HPC)) was 102 % of control, the T/C (endpoint: mean survival time, dose: 20.0 mg/kg/injection, schedule: Q04DX003 (ip), vehicle: Klucel (hydroxypropylcellulose) (HPC)) was 98 % of control and the T/C (endpoint: mean survival time, dose: 40.0 mg/kg/injection, schedule: Q04DX003 (ip), vehicle: Klucel (hydroxypropylcellulose) (HPC)) was 106 % of control.

For `O=c1c2cc([N+](=O)[O-])cc3c2-c2c4c(cc([N+](=O)[O-])cc14)c(O)c1cc([N+](=O)[O-])cc(c3=O)c21`, the T/C (endpoint: mean survival time, dose: 100.0 mg/kg/injection, schedule: Q01DX009 (ip), vehicle: saline with Tween-80) was 103 % of control, the T/C (endpoint: mean survival time, dose: 200.0 mg/kg/injection, schedule: Q01DX009 (ip), vehicle: saline with Tween-80) was 117 % of control and the T/C (endpoint: mean survival time, dose: 400.0 mg/kg/injection, schedule: Q01DX009 (ip), vehicle: saline with Tween-80) was 113 % of control.

In the case of `O=CC(O)C(O)C(O)C(O)C(=O)O.[NH-]CC1CCCCC1[NH-].[Pt+2]` (centres undefined), the T/C (endpoint: mean survival time, dose: 1.88 mg/kg/injection, schedule: Q04DX003 (ip), vehicle: saline) is reported as 118 % of control, the T/C (endpoint: mean survival time, dose: 7.5 mg/kg/injection, schedule: Q04DX003 (ip), vehicle: saline) is reported as 156 % of control and the T/C (endpoint: mean survival time, dose: 15.0 mg/kg/injection, schedule: Q04DX003 (ip), vehicle: saline) is reported as 166 % of control and 253 % of control. For the same compound, the T/C (endpoint: mean survival time, dose: 30.0 mg/kg/injection, schedule: Q04DX003 (ip), vehicle: saline) was 151 % of control.

For `COC(=O)C1CCC(N(C)S(=O)(=O)c2ccc(C)cc2)CC1` (centres undefined), the T/C (endpoint: mean survival time, dose: 100.0 mg/kg/injection, schedule: Q01DX009 (ip), vehicle: Klucel (hydroxypropylcellulose) (HPC)) was 100 % of control, the T/C (endpoint: mean survival time, dose: 200.0 mg/kg/injection, schedule: Q01DX009 (ip), vehicle: Klucel (hydroxypropylcellulose) (HPC)) was 96 % of control and the T/C (endpoint: mean survival time, dose: 400.0 mg/kg/injection, schedule: Q01DX009 (ip), vehicle: Klucel (hydroxypropylcellulose) (HPC)) was 92 % of control.

For `Nc1ncnc2c1ncn2CCCl`, the T/C [1] was 102 % of control, the T/C (endpoint: mean survival time, dose: 25.0 mg/kg/injection, schedule: Q04DX003 (ip), vehicle: saline with Tween-80) was 103 % of control and the T/C (endpoint: mean survival time, dose: 50.0 mg/kg/injection, schedule: Q01DX009 (ip), vehicle: saline with Tween-80) was 101 % of control. The T/C (endpoint: mean survival time, dose: 50.0 mg/kg/injection, schedule: Q04DX003 (ip), vehicle: saline with Tween-80) was 96 % of control and the T/C [2] was 97 % of control.

In the case of `Cc1ccc(C(O)(c2ccccc2)c2ccccc2C(=O)Nc2ccccc2)cc1` (centres undefined), the T/C [2] is reported as 88 % of control, the T/C (endpoint: mean survival time, dose: 200.0 mg/kg/injection, schedule: Q04DX003 (ip), vehicle: saline with Tween-80) is reported as 90 % of control and the T/C (endpoint: mean survival time, dose: 400.0 mg/kg/injection, schedule: Q04DX003 (ip), vehicle: saline with Tween-80) is reported as 95 % of control.

With `CCCCCCC(Sc1nn(C2OC(COC(=O)c3ccccc3)C(OC(=O)c3ccccc3)C2OC(=O)c2ccccc2)c(=O)[nH]c1=O)C(=O)OCC` (centres undefined) the T/C (endpoint: mean survival time, dose: 12.5 mg/kg/injection, schedule: Q01DX005 (ip), vehicle: distilled water + Tween-80) was 100 % of control, the T/C (endpoint: mean survival time, dose: 25.0 mg/kg/injection, schedule: Q01DX005 (ip), vehicle: distilled water + Tween-80) was 100 % of control and the T/C (endpoint: mean survival time, dose: 50.0 mg/kg/injection, schedule: Q01DX005 (ip), vehicle: distilled water + Tween-80) was 94 % of control. For the same compound, the T/C (endpoint: mean survival time, dose: 100.0 mg/kg/injection, schedule: Q01DX005 (ip), vehicle: distilled water + Tween-80) was 95 % of control and the T/C (endpoint: mean survival time, dose: 200.0 mg/kg/injection, schedule: Q01DX005 (ip), vehicle: distilled water + Tween-80) was 94 % of control.

With `C=C(OC)C(Nc1cc(OC)c(OC)cc1C(=O)OC1CC(O[C@@H]2C(=O)C(NC(=O)OC)=C3/C(=C\CSSSC)[C@]2(O)C#C/C=C\C#C[C@@H]3OC2OC(C)C(NOC3CC(O)C(SC)C(C)O3)C(O)C2OC2CC(OC)C(NCCC)CO2)OC(C)C1O)OC` (some centres undefined) the T/C (endpoint: median survival time, dose: 0.1 micrograms/kg/injection, schedule: Q01DX005 (ip), vehicle: methylcellulose (MC)) was 117 % of control, the T/C (endpoint: median survival time, dose: 0.2 micrograms/kg/injection, schedule: Q01DX005 (ip), vehicle: methylcellulose (MC)) was 117 % of control and the T/C (endpoint: median survival time, dose: 0.2 micrograms/kg/injection, schedule: Q04DX003 (ip), vehicle: methylcellulose (MC)) was 109 % of control. The T/C (endpoint: median survival time, dose: 0.3 micrograms/kg/injection, schedule: Q01DX005 (ip), vehicle: saline + alcohol) was 180 % of control, the T/C (endpoint: median survival time, dose: 0.32 micrograms/kg/injection, schedule: Q01DX005 (ip), vehicle: saline + alcohol) was 119 % of control and the T/C (endpoint: median survival time, dose: 0.4 micrograms/kg/injection, schedule: Q01DX005 (ip), vehicle: methylcellulose (MC)) was 118 % of control. For the same compound, the T/C (endpoint: median survival time, dose: 0.4 micrograms/kg/injection, schedule: Q04DX003 (ip), vehicle: methylcellulose (MC)) was 118 % of control, the T/C (endpoint: median survival time, dose: 0.5 micrograms/kg/injection, schedule: Q01DX005 (ip), vehicle: saline + alcohol) was 180 % of control and the T/C (endpoint: median survival time, dose: 0.64 micrograms/kg/injection, schedule: Q01DX005 (ip), vehicle: saline + alcohol) was 151 % of control. The T/C (endpoint: median survival time, dose: 0.8 micrograms/kg/injection, schedule: Q01DX001 (ip), vehicle: methylcellulose (MC)) was 113 % of control, the T/C (endpoint: median survival time, dose: 0.8 micrograms/kg/injection, schedule: Q01DX005 (ip), vehicle: saline + alcohol) was 170 % of control and the T/C (endpoint: median survival time, dose: 0.8 micrograms/kg/injection, schedule: Q04DX003 (ip), vehicle: methylcellulose (MC)) was 122 % of control. For the same compound, the T/C (endpoint: median survival time, dose: 1.28 micrograms/kg/injection, schedule: Q01DX005 (ip), vehicle: saline + alcohol) was 170 % of control, the T/C (endpoint: median survival time, dose: 1.3 micrograms/kg/injection, schedule: Q01DX005 (ip), vehicle: saline + alcohol) was 180 % of control and the T/C (endpoint: median survival time, dose: 2.1 micrograms/kg/injection, schedule: Q01DX005 (ip), vehicle: saline + alcohol) was 180 % of control. The T/C (endpoint: median survival time, dose: 3.2 micrograms/kg/injection, schedule: Q01DX005 (ip), vehicle: methylcellulose (MC)) was 162 % of control, the T/C (endpoint: median survival time, dose: 6.4 micrograms/kg/injection, schedule: Q01DX001 (ip), vehicle: methylcellulose (MC)) was 150 % of control and the T/C (endpoint: median survival time, dose: 6.4 micrograms/kg/injection, schedule: Q01DX005 (ip), vehicle: methylcellulose (MC)) was 94 % of control. For the same compound, the T/C (endpoint: median survival time, dose: 6.4 micrograms/kg/injection, schedule: Q04DX003 (ip), vehicle: methylcellulose (MC)) was 152 % of control, the T/C (endpoint: median survival time, dose: 12.8 micrograms/kg/injection, schedule: Q01DX001 (ip), vehicle: methylcellulose (MC)) was 150 % of control and the T/C (endpoint: median survival time, dose: 25.6 micrograms/kg/injection, schedule: Q01DX001 (ip), vehicle: methylcellulose (MC)) was 104 % of control.
